Results taken from ChEMBL document CHEMBL2413072, “Synthesis and in vitro anticancer studies of novel C-2 arylidene congeners of lantadenes” (2013).

Assays:
Type in all cases: functional
[1] = system: T47D; assay: Growth inhibition of human T47D cells assessed as cell growth at 10^-7 M by sulforhodamine B assay; conditions: read-out: Activity
[2] = system: UACC-62; assay: Growth inhibition of human UACC62 cells assessed as cell growth at 10^-6 M by sulforhodamine B assay; conditions: read-out: Activity
[3] = system: HCT-15; assay: Growth inhibition of human HCT15 cells assessed as cell growth at 10^-6 M by sulforhodamine B assay; conditions: read-out: Activity
[4] = system: SF-539; assay: Growth inhibition of human SF539 cells by sulforhodamine B assay
[5] = system: T47D; assay: Growth inhibition of human T47D cells assessed as cell growth at 10^-6 M by sulforhodamine B assay; conditions: read-out: Activity
[6] = system: SF-295; assay: Growth inhibition of human SF295 cells by sulforhodamine B assay
[7] = Growth inhibition of human Hs 578T cells assessed as cell growth at 10^-6 M by sulforhodamine B assay; conditions: read-out: Activity
[8] = system: SW-620; assay: Growth inhibition of human SW620 cells by sulforhodamine B assay
[9] = system: SF-268; assay: Growth inhibition of human SF268 cells by sulforhodamine B assay
[10] = system: COLO 205; assay: Growth inhibition of human COLO205 cells assessed as cell growth at 10^-7 M by sulforhodamine B assay; conditions: read-out: Activity
[11] = Growth inhibition of human NCI-ADR-RES cells assessed as cell growth at 10^-7 M by sulforhodamine B assay; conditions: read-out: Activity
[12] = system: MCF7; assay: Growth inhibition of human MCF7 cells assessed as cell growth at 10^-4 M by sulforhodamine B assay; conditions: read-out: Activity
[13] = system: MOLT-4; assay: Growth inhibition of human MOLT4 cells assessed as cell growth at 10^-8 M by sulforhodamine B assay; conditions: read-out: Activity
[14] = system: HCT-116; assay: Growth inhibition of human HCT116 cells assessed as cell growth at 10^-4 M by sulforhodamine B assay; conditions: read-out: Activity
[15] = system: OVCAR-4; assay: Growth inhibition of human OVCAR4 cells assessed as cell growth at 10^-7 M by sulforhodamine B assay; conditions: read-out: Activity
[16] = system: OVCAR-4; assay: Growth inhibition of human OVCAR4 cells assessed as cell growth at 10^-6 M by sulforhodamine B assay; conditions: read-out: Activity
[17] = system: SF-268; assay: Growth inhibition of human SF268 cells assessed as cell growth at 10^-4 M by sulforhodamine B assay; conditions: read-out: Activity
[18] = system: SN12C; assay: Growth inhibition of human SN12C cells assessed as cell growth at 10^-6 M by sulforhodamine B assay; conditions: read-out: Activity
[19] = system: RPMI-8226; assay: Growth inhibition of human RPMI8226 cells assessed as cell growth at 10^-6 M by sulforhodamine B assay; conditions: read-out: Activity
[20] = system: OVCAR-8; assay: Growth inhibition of human OVCAR8 cells assessed as cell growth at 10^-4 M by sulforhodamine B assay; conditions: read-out: Activity
[21] = system: PC-3; assay: Growth inhibition of human PC3 cells assessed as cell growth at 10^-6 M by sulforhodamine B assay; conditions: read-out: Activity
[22] = system: SW-620; assay: Growth inhibition of human SW620 cells assessed as cell growth at 10^-4 M by sulforhodamine B assay; conditions: read-out: Activity
[23] = system: RPMI-8226; assay: Growth inhibition of human RPMI8226 cells assessed as cell growth at 10^-7 M by sulforhodamine B assay; conditions: read-out: Activity
[24] = system: ACHN; assay: Growth inhibition of human ACHN cells assessed as cell growth at 10^-8 M by sulforhodamine B assay; conditions: read-out: Activity
[25] = system: IGROV-1; assay: Growth inhibition of human IGROV1 cells assessed as cell growth at 10^-6 M by sulforhodamine B assay; conditions: read-out: Activity
[26] = system: SNB-19; assay: Growth inhibition of human SNB19 cells assessed as cell growth at 10^-6 M by sulforhodamine B assay; conditions: read-out: Activity
[27] = system: NCI-H522; assay: Growth inhibition of human NCI-H522 cells assessed as cell growth at 10^-6 M by sulforhodamine B assay; conditions: read-out: Activity
[28] = system: RXF 393; assay: Growth inhibition of human RXF393 cells assessed as cell growth at 10^-4 M by sulforhodamine B assay; conditions: read-out: Activity
[29] = system: HT-29; assay: Growth inhibition of human HT-29 cells by sulforhodamine B assay
[30] = system: NCI-H226; assay: Growth inhibition of human NCI-H226 cells assessed as cell growth at 10^-8 M by sulforhodamine B assay; conditions: read-out: Activity
[31] = system: OVCAR-4; assay: Growth inhibition of human OVCAR4 cells by sulforhodamine B assay
[32] = system: KM12; assay: Growth inhibition of human KM12 cells assessed as cell growth at 10^-4 M by sulforhodamine B assay; conditions: read-out: Activity
[33] = system: SNB-75; assay: Growth inhibition of human SNB75 cells assessed as cell growth at 10^-7 M by sulforhodamine B assay; conditions: read-out: Activity
[34] = system: MCF7; assay: Growth inhibition of human MCF7 cells assessed as cell growth at 10^-6 M by sulforhodamine B assay; conditions: read-out: Activity
[35] = system: OVCAR-8; assay: Growth inhibition of human OVCAR8 cells by sulforhodamine B assay
[36] = system: CCRF-CEM; assay: Growth inhibition of human CCRF-CEM cells assessed as cell growth at 10^-8 M by sulforhodamine B assay; conditions: read-out: Activity
[37] = system: OVCAR-3; assay: Growth inhibition of human OVCAR3 cells assessed as cell growth at 10^-6 M by sulforhodamine B assay; conditions: read-out: Activity
[38] = system: SF-539; assay: Growth inhibition of human SF539 cells assessed as cell growth at 10^-7 M by sulforhodamine B assay; conditions: read-out: Activity
[39] = system: MDA-MB-435; assay: Growth inhibition of human MDA-MB-435 cells assessed as cell growth at 10^-4 M by sulforhodamine B assay; conditions: read-out: Activity
[40] = system: BT-549; assay: Growth inhibition of human BT549 cells assessed as cell growth at 10^-7 M by sulforhodamine B assay; conditions: read-out: Activity
[41] = system: M14; assay: Growth inhibition of human M14 cells assessed as cell growth at 10^-8 M by sulforhodamine B assay; conditions: read-out: Activity
[42] = system: OVCAR-5; assay: Growth inhibition of human OVCAR5 cells assessed as cell growth at 10^-4 M by sulforhodamine B assay; conditions: read-out: Activity
[43] = read-out: LC50 (the source's name)
[44] = read-out: pLC50 (the source's name) (converted)

## CC1(C)C[C@@H](O)[C@]2(C(=O)O)CC[C@]3(C)C(=CC[C@@H]4[C@@]5(C)C/C(=C\C=C\c6ccccc6)C(=O)C(C)(C)[C@@H]5CC[C@]43C)[C@@H]2C1
[1]
  growth at 0.1 µM: 96%
[2]
  growth at 1 µM: 88%
[3]
  growth at 1 µM: 95%
[4]; read-out: GI50
  GI50: 2.86 µM
[4]; [43]
  CC50: 36.7 µM
[4]; read-out: TGI
  TGI: 10.6 µM
[4]; read-out: pGI50 (converted)
  GI50: 2.88 µM
[4]; [44]
  CC50: 36.3 µM
[4]; read-out: pTGI (converted)
  TGI: 10.7 µM
[5]
  growth at 1 µM: 97%
[6]; read-out: GI50
  GI50: 2.4 µM
[6]; [43]
  CC50: 49.8 µM
[6]; read-out: TGI
  TGI: 7.56 µM
[6]; read-out: pGI50 (converted)
  GI50: 2.4 µM
[6]; [44]
  CC50: 50.1 µM
[6]; read-out: pTGI (converted)
  TGI: 7.59 µM
[7]
  growth at 1 µM: 87%
[8]; read-out: GI50
  GI50: 3.39 µM
[8]; [43]
  CC50: 78.8 µM
[8]; read-out: TGI
  TGI: 15.4 µM
[8]; read-out: pGI50 (converted)
  GI50: 3.39 µM
[8]; [44]
  CC50: 79.4 µM
[8]; read-out: pTGI (converted)
  TGI: 15.5 µM
[9]; read-out: GI50
  GI50: 3.36 µM
[9]; read-out: LC50
  LC50: 45.5 µM
[9]; read-out: TGI
  TGI: 14 µM
[9]; read-out: pGI50 (converted)
  GI50: 3.39 µM
[9]; read-out: pLC50 (converted)
  LC50: 45.7 µM
[9]; read-out: pTGI (converted)
  TGI: 14.1 µM
[10]
  growth at 0.1 µM: 100%
[11]
  growth at 0.1 µM: 108%
[12]
  growth at 100 µM: -68%
[13]
  growth at 0.01 µM: 104%
[14]
  growth at 100 µM: -55%
[15]
  growth at 0.1 µM: 96%
[16]
  growth at 1 µM: 89%
[17]
  growth at 100 µM: -83%
[18]
  growth at 1 µM: 91%
[19]
  growth at 1 µM: 92%
[20]
  growth at 100 µM: -67%
[21]
  growth at 1 µM: 80%
[22]
  growth at 100 µM: -57%
[23]
  growth at 0.1 µM: 99%
[24]
  growth at 0.01 µM: 97%
[25]
  growth at 1 µM: 113%
[26]
  growth at 1 µM: 88%
[27]
  growth at 1 µM: 94%
[28]
  growth at 100 µM: -92%
[29]; read-out: GI50
  GI50: 2.68 µM
[29]; read-out: LC50
  LC50 (50% cell kill): 32.9 µM
[29]; read-out: TGI
  TGI: 7.37 µM
[29]; read-out: pGI50 (converted)
  GI50: 2.69 µM
[29]; read-out: pLC50 (converted)
  LC50 (50% cell kill): 33.1 µM
[29]; read-out: pTGI (converted)
  TGI: 7.41 µM
[30]
  growth at 0.01 µM: 97%
[31]; read-out: GI50
  GI50: 3.85 µM
[31]; [43]
  CC50: 40.2 µM
[31]; read-out: TGI
  TGI: 15.4 µM
[31]; read-out: pGI50 (converted)
  GI50: 3.89 µM
[31]; [44]
  CC50: 39.8 µM
[31]; read-out: pTGI (converted)
  TGI: 15.5 µM
[32]
  growth at 100 µM: -76%
[33]
  growth at 0.1 µM: 89%
[34]
  growth at 1 µM: 95%
[35]; read-out: GI50
  GI50: 3.41 µM
[35]; [43]
  CC50: 60.8 µM
[35]; read-out: TGI
  TGI: 14.2 µM
[35]; read-out: pGI50 (converted)
  GI50: 3.39 µM
[35]; [44]
  CC50: 60.3 µM
[35]; read-out: pTGI (converted)
  TGI: 14.1 µM
[36]
  growth at 0.01 µM: 95%
[37]
  growth at 1 µM: 92%
[38]
  growth at 0.1 µM: 92%
[39]
  growth at 100 µM: -43%
[40]
  growth at 0.1 µM: 103%
[41]
  growth at 0.01 µM: 97%
[42]
  growth at 100 µM: -97%
